Legend:
VEGF promoter = assay: VEGF transcription-suppressing activity (VEGF promoter-PLAP reporter, U251/1-8 cells, hypoxia); assay type: cell-based; conditions: Homo sapiens, U-251, 18 h, read-out: VEGF transcription-suppressing activities (IC50: nM)
Description: In order to prepare reporter system reflecting transcription from VEGF promoter, VEGF promoter sequence was cloned, and inserted in secretory alkaline phosphatase (PLAP) vector to construct reporter vector.
In order to obtain the promoter region of human VEGF, VEGF genomic DNA was cloned from phage library. PCR primers having the sequences described in Sequence Numbers 1 and 2 were designed based on VEGF cDNA (GenBank accession number: X62568) and a fragment having about 340 bp was obtained by carrying out PCR. Human genomic phage library (Human genomic library, Clontech Co.) was screened using this as a probe to obtain VEGF genomic DNA. The DNA was digested by EcoRI, and the resultant fragments were inserted in the EcoRI site of pUC18. Finally, pUC18-VEGFA containing about 5.4 kb of VEGF 5′ flanking region was obtained. The pUC18-VEGFA was digested by KpnI/NheI, VEGF promoter region of about 2.3 kb obtained was inserted in the multi cloning site KpnI/NheI of secretory alkaline phosphatase (PLAP) vector (Goto et al, Mol. Pharmacol., 49, 860-873, 1996), and thus, VEGF-PLAP vector was constructed.
The above-mentioned VEGF-PLAP vector was transfected in the U251 cell cultured in the DULBECCO-modified eagle medium (DMEM; manufactured by SIGMA Co., Ltd.) containing 10% fetal calf serum, and the cells were cultured in the presence of 1 mg/mL G418 (Merck Co.) to establish G418 resistant stable clone (U251/1-8 cell).
It was confirmed that U251/1-8 cell secreted PLAP under hypoxic condition (2% O2 incubator) in the same manner as in the report (Cell. Mol. Biol. Res. 40, 35-39, 1994) and was a reporter system reflecting the transcription from VEGF promoter. The screening of the compound suppressing VEGF production which was induced by hypoxic stimulation was carried out below using the clone.
In order to remove the influence of alkaline phosphates in serum, U251/1-8 cells were rinsed twice with the adequate amount of PBS (Phosphate buffered saline), diluted in the DMEM medium containing 10% of serum in which alkaline phosphates was inactivated by the treatment of 65° C. for 20 min., and dispensed in 96-well plates by 4×10^4 cells/180 μL.
After culturing at 37° C. overnight in a CO2 incubator (5% CO2), 20 μL of the above-mentioned incubation solution containing the test compound diluted with 3-fold succession was added, and then they were incubated in a hypoxic (2% […]) incubator for 18 hours. With respect to the PLAP activity in the culture supernatants, 10 μL of the supernatants was added to 50 μL of 0.28 M Na2CO3—NaHCO3 buffer solution (pH 10.0, 8.0 mM MgSO4), and finally 50 μL of alkaline phosphatase substrate (LUMISTEIN, Genomescience Co.) was added. After reacting for one hour, the alkaline phosphatase activity of the PLAP was measured by detecting the chemical luminescence by a micro plate reader (Perkin-Elmer Co.). The PLAP activity under normoxia was set as 0%, the PLAP activity of cell which was treated under hypoxia was set as 100%, and the concentration suppressing the PLAP activity by 50% was set as the IC50 value of PLAP. The IC50 values of 11107D derivatives shown in Examples were measured, and the IC50 values of representative 11107D derivatives are shown in Table 1.

[1] = tested on: WiDr human colon cancer cells; assay: Growth inhibitory activities on WiDr human colon cancer cells (MTT); assay type: cell-based; conditions: 72 h, three days incubation
Method: WiDr human colon cancer cells cultured in DULBECCO-modified eagle medium (DMEM; manufactured by SIGMA Co., Ltd.) containing 10% fetal calf serum, penicillin (100 unit/mL) and streptomycin (100 μg/mL) were dispensed in 96-well plates by 2×10^3 cells/well. After culturing overnight in a CO2 incubator, 20 μL of the above-mentioned incubation solution containing the test compound diluted with 3-fold succession was added, followed by incubation. After three days, 50 μL of 3.3 mg/mL MTT solution was added, followed by culturing for further one hour. Then, formazan formed by the reduction by the action of living cells was extracted with 100 μL of DMSO, the absorbance (A540/A660) was determined and was set as the index of the number of living cells.
The concentrations of the compounds of the formula (I) at which the growth of WiDr human colon cancer cells are inhibited 50% were determined.

[2] = tested on: WiDr human colon cancer cells; assay: Solid tumor growth inhibitory activities, WiDr human colon tumor model in nude mice; assay type: in vivo; conditions: Mus musculus, iv, 360 h, read-out: Growth inhibitory activities in the WiDr human solid tumor model (T/C %)
Description: (§1) In order to study solid tumor growth inhibitory activities of the compounds of the formula (I) in vivo, WiDr human colon cancer cells were implanted subcutaneously into the flanks of nude mice. […]. The animals were grouped so that the average of the volumes of the respective groups became uniform, when it reached about 100 mm^3. Control group was made up of 10 mice and 11107D-administering groups were made up of 5 mice. The derivatives were administered for the administering groups for 5 consecutive days by intravenous injection so as to be any of 0.625 mg, 1.25 mg, 2.5 mg, 5 mg and 10 mg/kg/day, and a vehicle was administered to the control group. The tumor volumes on Day 15 were measured, and relative tumor volume ratios (T/C %) were determined setting the tumor volume of the control group as 100%. The body weights on Day 1, Day 5, Day 8, Day 12 and Day 15 (or 16) were measured, and relative body weight variations were determined setting the body weight on Day 1 as 100%. The relative body weight ratios on the day where the body weight reached the minimum were defined as the minimum relative weight ratios and are shown in Table 3.

[3] = Body weight loss (acute toxicity) in the WiDr tumor model; assay type: in vivo, nude mice; conditions: intravenous 5 consecutive days, body weight relative to Day 1
Description: as §1

[4] = Stability in an aqueous solution (HPLC residual ratio); conditions: for Peak area (mAU × sec) after 24 hours / The residual ratios (%): Britton-Robinson's buffer pH 7, 25° C., 24 hours; for Peak area (mAU × sec) initial: Britton-Robinson's buffer pH 7, before incubation
Method: The compounds of the formula (I) were dissolved in DMSO in concentrations of 10 to 20 mM, and these were diluted about 500 folds with Britton-Robinson's buffer solution of pH 7. Each of the solutions as sample solutions was incubated at 25° C. for 24 hours.
The sample solutions were analyzed by high performance liquid chromatography before and after incubation, and the residual ratios of the tested substances in the sample solutions after incubation were determined from the peak areas of the obtained chromatograms.

CCC(O)C(C)C1OC1CC(C)(O)/C=C/C=C(\C)C1OC(=O)CC(O)CCC(C)(O)C(OC(=O)N(C)CCN(C)C)/C=C/C1C (stereo not shown) [Compound 6, (8E,12E,14E)-7-(N-(2-(N′,N′-Dimethylamino)ethyl)-N-methylcarbamoyloxy)-3,6,16,21-tetrahydroxy-6,10,12,16,20-pentamethyl-18,19-epoxytricosa-8,12,14-trien-11-olide]
IC50 (VEGF promoter): 32 nM
IC50 [1]: 12.5 nM
response vs control in vivo at 1.25 mg/kg [2]: 35%
the minimum relative weight ratios ([3]; Dose 1.25 mg/kg): 0.81

CCC(O)C(C)C1OC1CC(C)(O)/C=C/C=C(\C)C1OC(=O)CC(O)CCC(C)(O)C(OC(=O)N2CCCN(C)CC2)/C=C/C1C (stereo not shown) [Compound 9, (8E,12E,14E)-3,6,16,21-Tetrahydroxy-6,10,12,16,20-pentamethyl-7-((4-methylhomopiperazin-1-yl)carbonyl)oxy-18,19-epoxytricosa-8,12,14-trien-11-olide]
IC50 (VEGF promoter): 12.9 nM
IC50 [1]: 5.5 nM
response vs control in vivo at 5 mg/kg [2]: 10%
the minimum relative weight ratios ([3]; Dose 5.0 mg/kg): 0.86
Peak area (mAU × sec) after 24 hours [4]: 5476 mAU × sec
The residual ratios (%) [4]: 96.2%
Peak area (mAU × sec) initial [4]: 5690 mAU × sec

CCCCN1CCN(C(=O)OC2/C=C/C(C)C(/C(C)=C/C=C/C(C)(O)CC3OC3C(C)C(O)CC)OC(=O)CC(O)CCC2(C)O)CC1 (stereo not shown) [Compound 16, (8E,12E,14E)-7-((4-Butylpiperazin-1-yl)carbonyl)oxy-3,6,16,21-tetrahydroxy-6,10,12,16,20-pentamethyl-18,19-epoxytricosa-8,12,14-trien-11-olide]
IC50 (VEGF promoter): 3.1 nM
IC50 [1]: 2 nM
response vs control in vivo at 2.5 mg/kg [2]: 28%
the minimum relative weight ratios ([3]; Dose 2.5 mg/kg): 0.90

CCC(O)C(C)C1OC1CC(C)(O)/C=C/C=C(\C)C1OC(=O)CC(O)CCC(C)(O)C(OC(=O)N2CCN(CC)CC2)/C=C/C1C (stereo not shown) [Compound 21, (8E,12E,14E)-7-((4-Ethylpiperazin-1-yl)carbonyl)oxy-3,6,16,21-tetrahydroxy-6,10,12,16,20-pentamethyl-18,19-epoxytricosa-8,12,14-trien-11-olide]
IC50 (VEGF promoter): 6.1 nM
IC50 [1]: 3.2 nM
response vs control in vivo at 2.5 mg/kg [2]: 28%
the minimum relative weight ratios ([3]; Dose 2.5 mg/kg): 0.80

CCC(O)C(C)C1OC1CC(C)(O)/C=C/C=C(\C)C1OC(=O)CC(O)CCC(C)(O)C(OC(=O)N2CCC(N3CCCCC3)CC2)/C=C/C1C (stereo not shown) [Compound 22, (8E,12E,14E)-3,6,16,21-Tetrahydroxy-6,10,12,16,20-pentamethyl-7-((4-(piperidin-1-yl)piperidin-1-yl)carbonyl)oxy-18,19-epoxytricosa-8,12,14-trien-11-olide]
IC50 (VEGF promoter): 25.6 nM
IC50 [1]: 14.6 nM
response vs control in vivo at 5 mg/kg [2]: 39%
the minimum relative weight ratios ([3]; Dose 5.0 mg/kg): 0.74
Peak area (mAU × sec) after 24 hours [4]: 4514 mAU × sec
The residual ratios (%) [4]: 95.8%
Peak area (mAU × sec) initial [4]: 4713 mAU × sec

CCC(O)C(C)C1OC1CC(C)(O)/C=C/C=C(\C)C1OC(=O)CC(O)CCC(C)(O)C(OC(=O)N2CCN(C3CCCCC3)CC2)/C=C/C1C (stereo not shown) [Compound 26, (8E,12E,14E)-7-((4-Cyclohexylpiperazin-1-yl)carbonyl)oxy-3,6,16,21-tetrahydroxy-6,10,12,16,20-pentamethyl-18,19-epoxytricosa-8,12,14-trien-11-olide]
IC50 (VEGF promoter): 2.8 nM
IC50 [1]: 1.6 nM
response vs control in vivo at 2.5 mg/kg [2]: 42%
the minimum relative weight ratios ([3]; Dose 2.5 mg/kg): 0.93

CCC(O)C(C)C1OC1CC(C)(O)/C=C/C=C(\C)C1OC(=O)CC(O)CCC(C)(O)C(OC(=O)N2CCN(C(C)C)CC2)/C=C/C1C (stereo not shown) [Compound 44, (8E,12E,14E)-3,6,16,21-Tetrahydroxy-7-((4-isopropylpiperazin-1-yl)carbonyl)oxy-6,10,12,16,20-pentamethyl-18,19-epoxytricosa-8,12,14-trien-11-olide]
IC50 (VEGF promoter): 3.9 nM
IC50 [1]: 2.1 nM
response vs control in vivo at 5 mg/kg [2]: 19%
the minimum relative weight ratios ([3]; Dose 5.0 mg/kg): 0.89
Peak area (mAU × sec) after 24 hours [4]: 3820 mAU × sec
The residual ratios (%) [4]: 94.8%
Peak area (mAU × sec) initial [4]: 4031 mAU × sec
